Entries after “also recorded” stand apart in the source; their conditions may differ.
Experiments:
HUVECs = test: Dil-ox-LDL uptake by HUVECs (flow cytometry); format: cell-based, human; details: for effect on ox-LDL uptake by HUVECs (in words): 200 nM compound; for reduction of the uptake of ox-LDL by HUVECs: 200 nM concentration
Method: FIG. 3A, FIG. 3B, FIG. 3C and FIG. 3D depict the inhibitory effect of the lead compounds on Dil-ox-LDL uptake by HUVECs and CHO cells (measured by flow cytometry) and the effect of the lead compounds on ox-LDL-induced LOX-1 mRNA and protein expression. (FIG. 3A) (Upper Panel) Flow cytometry measurements using HUVECs in the presence of the five lead compounds (Mol-1-Mol-5), each a at 200 nM concentration. (Lower Panel) The percentage of internalized ox-LDL. Graphs show data as mean (±SD); n=4. *P<0.01 or <0.05 vs. control. (FIG. 3B) IC50 value for Mol-5. IC50 value (in nM) is based on inhibition of Dil-ox-LDL uptake in CHO cells overexpressing human LOX-1. Graphs show data as mean (±SD); n=5. *P<0.01 or <0.05 vs. control. (FIG. 3C) Western blotting assay showing LOX-1 protein expression in HUVECs following incubation with 200 nM Mol-1 to Mol-5 for 30 min, and subsequently exposure to 5 μg/mL ox-LDL for 6 hours. (FIG. 3D) The variation of LOX-1 mRNA expression levels at different concentrations of the compounds following exposure of HUVECs to 5 μg/mL ox-LDL. The concentrations are indicated on the X-axis and the LOX-1 mRNA levels are shown on the Y-axis. The plots for all the five molecules are shown in separate colors. Graphs show data as mean (±SD); n=3. *P<0.01 vs. control; #P<0.01 vs. ox-LDL group.
For further characterization, human endothelial cells and fluorescently-labeled Dil-ox-LDL were used for measuring initiation of atherogenic process based on interaction of vascular wall with ox-LDL. Ox-LDL uptake by human umbilical vein endothelial cells (HUVECs) was measured after exposure to 200 nM of each compound using flow cytometry. […] The dose response to modulation of ox-LDL uptake by Mol-5 (0, 20, 200 and 2000 nM) was also measured in CHO cells overexpressing human LOX-1. […] A second dose response curve was conducted to narrow in on the effect of lower concentrations of Mol-5 on ox-LDL uptake (FIG. 6A). Using this information the EC50 was estimated to be […] (FIG. 6B).
The primary HUVECs were purchased from ATCC (Manassas, Va.) and cultured in vascular cell basal medium with supplements (including 10 mL fetal bovine serum, 10 mM L-glutamine, 0.5 tg hydrocortisone hem isuccinate, 25 tg ascorbic acid, 2.5 ng rhVEGF, 2.5 ng rhEGF, 2.5 ng rh FGF, 7.5 ng rhIGF-1 and 0.375 units heparin sulfate). Cells from passages 3 and 4 were used in this study.
HUVECs were plated into 6-well plates and cultured until the cells reached 70% confluence. The cells were exposed to […] Dil-ox-LDL for 30 min after treatment with 200 nM of each of 5 molecules for 30 min, and then washed with PBS for 3 times. After washing, the cells were digested with trypsin and washed with PBS, and suspended in 400 tL PBS, and analyzed with a flow-cytometer (Becton Dickinson, Mountain View, Calif.). For further confirm the inhibitory effects of Mol-5 on Dil-ox-LDL uptake, we also measured Dil-ox-LDL uptake by CHO cells after exposure to […] Mol-5 for 30 min. The CHO cells were stably transfected with human LOX-1 cDNA.

human LOX-1 = human LOX-1 (Homo sapiens, UniProt P78380); test: Thermal shift assay with purified LOX-1 protein; format: binding; set-up: It encodes for 147 amino acids for the LOX-1 fragment (residues 136-273); made in house; host or cells: E. coli BL21 (DE3), co-expressed with DsbC; details: for thermal shift (in words): differential scanning fluorimetry; for thermal shift of LOX-1 protein: LOX-1 protein 4 μM, ligand 50 μM, shifts in Celsius
From the text: FIG. 2A, FIG. 2B and FIG. 2C depict the docking of the 5 lead compounds and the thermal denaturation assay: (FIG. 2A) The figure depicts the docking of the 5 lead compounds in the binding pocket of LOX-1. LOX-1 is shown as a ribbon model with one monomer in magenta and the other in blue. The compounds are shown as stick models in separate colors. (FIG. 2B) Hydrogen bonding interactions of the compounds as they dock to LOX-1. (FIG. 2C) The measured thermal shifts (in Celsius) are depicted for all five molecules. The solutions contained LOX-1 protein at 4 μM concentration. The ligand concentrations were 50 μM.
As the next step, a protein assay was performed to assess the interaction of the lead compounds with LOX-1 protein for an additional confirmation of the binding to LOX1. The extracellular domain of LOX-1 was expressed and the protein was purified. Using the purified protein, a thermal shift assay was performed. The technique involves measuring thermal denaturation temperatures of the protein in the presence and absence of inhibitors. A larger shift in thermal denaturation is indicative of a tight binding of the ligand to the protein.
In short, the thermal shift assay was performed using a real-time PCR detection system with the fluorescent dye sypro orange to monitor protein unfolding. Fluorescence increases upon protein unfolding because sypro orange has higher quantum in lower dielectric medium and low quantum in higher dielectric medium. During the thermal shift assay a protein exposes the hydrophobic region which corresponds to a lower dielectric environment. The thermal shift assay instrument contains accurate temperature control devices and a CCD detector for simultaneous imaging of fluorescence changes in the microplate. The typical reaction volume of a thermal shift assay is 20 μl, which includes the protein solution, the test compound solution, and the sypro orange. The temperature in the real-time PCR machine during the thermal shift assay was ramped 0.5° C./minute till 100° C.
The C-terminal domain of LOX-1 was expressed by using the protocols reported earlier^12. As this domain contains several disulfide bridges, it was co-expressed with DsbC, a Chaperone disulfide isomerase. The genes were custom synthesized by Genscript (Piscataway, N.J.) using gene map described in Park el al^12. It encodes for 147 amino acids for the LOX-1 fragment (residues 136-273) and 236 amino acids for DsbC. The gene was incorporated into a pET15b vectors by Genscript. The vectors were then transformed into Dh5α cells for amplification and BL21 (DE3) E. coli (Novagen) cells for expression. The proteins were expressed by adding 0.4 mM isopropyl β-D-thiogalactoside in E. coli cells grown in LB medium containing kanamycin, tetracycline, and carbenicillin at 23° C., with 250 rpm agitation, for 20 h. The protein was purified using a nickel-nitrilotriacetic acid column (Qiagen, Valencia, Calif.). And then, the protein samples were concentrated to 10 mg/ml.
LOX-1 protein was incubated with fluorescent dye Sypro Orange (Invitrogen/Life Technologies, Grand Island, N.Y.) and the thermal unfolding of the LOX-1 protein was monitored by measuring the fluorescence using Bio-Rad Real Time PCR machine. We measured the melting temperatures in the absence and presence of the inhibitors 4 tM of LOX-1 protein was incubated with Sypro Orange and heated in stepwise increments of 0.5° C. per min from 25-99° C. The wavelength for excitation was set to 490 and emission was set to 575 nm for Sypro Orange. Fluorescence was measured after every minute for each 0.5° C. increase.

thermal shift (in words) (human LOX-1)	thermal shift of LOX-1 protein (human LOX-1) [°]	Compound	effect on ox-LDL uptake by HUVECs (in words) (HUVECs)	reduction of the uptake of ox-LDL by HUVECs (HUVECs)
did not show measurable shifts	–	CC(C)(C)C(=O)NCCc1nc2ccccc2n1Cc1ccccc1F [Mol-2]	no significant effect	–
significant thermal shift	10	CCCn1c(CCNC(=O)CCCO)nc2ccccc21 [Mol-4]	significantly and potently inhibited	65%
did not show measurable shifts	–	CCOCCCNC(=O)CCN1C(=O)COc2ccccc21 [Mol-1]	moderate inhibitory effect	about 35%
significant thermal shift	4	Cc1cc(C)n(CC(O)COc2ccccc2)n1 (stereo not shown) [Mol-5, 1-(3,5-dimethyl-1H-pyrazol-1-yl)-3-phenoxypropan-2-ol]	significantly and potently inhibited; also recorded: maximum inhibitory effect	80%

Source: patent US11465972B2, “Inhibitors of oxidized low-density lipoprotein receptor 1 and methods of use thereof” (United States Government as represented by the Department …, priority 2015, dated 2022)
